Measurements from patent US10308618B2, “Blue light cutting optical material comprising a benzotriazole UV absorber” (ESSILOR INTERNATIONAL, priority 2016, dated 2019).

How the values were obtained:
[1] = Solubilization of the benzotriazole UV absorber in the ISO monomer; format: physicochemical; settings: in isocyanate monomer, compared with comparative benzotriazole VII
Method: For polythiourethane matrix, solubility during processing and compatibility of inventive and comparative benzotriazoles were assessed in two stages. First, initial solubilization of the benzotriazole UV absorber in the isocyanate monomer was assessed.

[2] = Transmission spectra: transmittance and light cut-off wavelength; format: physicochemical
Source text: The light cut-off wavelength of the optical material is preferably higher than or equal to 400 nm, more preferably higher than or equal to 405 nm, and even more preferably higher than or equal to 410 nm. It is preferably lower than 465 nm, more preferably lower than 450 nm. In the present disclosure, the light cut-off wavelength is defined as the wavelength below which light transmission becomes lower than 1%. In other words, it is the highest wavelength for which the transmittance is lower than 1%. The higher the light cut-off wavelength, the better the blue light cutting properties.
In the present description, unless otherwise specified, optical transmittances/transmissions are measured at the center of the optical article for a thickness ranging from 0.7 to 2 mm, preferably 2 mm, at normal incidence. As used herein, optical transmittance within a wavelength range is an average of light transmitted within this range and is not weighted according to the sensitivity of the eye at each wavelength of the range, unless otherwise specified. Last, optical transmittance is measured for optical articles having no coatings, in particular no antireflective coatings.
The light cut-off wavelength was determined from the transmission spectra, which are shown on FIGS. 1 and 2. […]

Molecule | Dissolution properties [1] | optical transmittance for each light wavelength ranging from 280 to 400 nm ([2]; 2-mm thick layer of material) | T (%) at 430 nm ([2]; 2 mm thick material, 430 nm)
CCCCCCCCOC(=O)CCc1cc(-n2nc3ccc(Cl)cc3n2)c(O)c(C(C)(C)C)c1 [Benzotriazole IV, n-octyl-3-[3-tert-butyl-4-hydroxy-5-(5-chloro-2H-benzotriazol-2-yl)phenyl] propionate] | improved dissolution properties |  | 
octyl-3-[3-tert-butyl-4-hydroxy-5-(2H-benzotriazol-2-yl)-phenyl] propionate branched and linear alkyl esters [Eversorb® 82] |  | lower than 1% | higher than 65%
